In patent publication US8163909B2, “Substituted hydroxyethyl amine compounds as beta-secretase modulators and methods of use” (Amgen Inc., priority 2007, dated 2012):
Like-named read-outs stand apart in the source and are kept apart here.

Assays:
[1] = target: Beta Secretase enzyme (BACE) (Homo sapiens, UniProt P56817); test: In vitro enzymatic BACE FRET (fluorescence resonance energy transfer) assay; assay type: biochemical;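 also: fluorescence read after 1 h with 50 nM quenched peptide substrate spanning the BACE cleavage site, in pH 4.2 acetate buffer containing 10% DMSO and nonionic detergent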
[2] = target: CYP3A4 (CYP3A) (Homo sapiens, UniProt P08684); test: in vitro; settings: microsomes, pH 7.4;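 also: inhibition of CYP3A-mediated 1-hydroxymidazolam formation after 10 min incubation with NADPH, quantified by HPLC MS relative to metabolite produced without test compound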
[3] = tested on: Aβ40 in conditioned medium of cells stably expressing Amyloid Precursor Protein (APP); test: In vitro BACE cell-based assay (Aβ40 in conditioned medium, sandwich ELISA); settings: Homo sapiens;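 also: compounds added as a dilution series, secreted peptide quantified by europium time-resolved fluorescence readout, potency fitted from percent of control versus compound concentration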
[4] = target: CYP2D6 (Homo sapiens, UniProt P10635); test: CYP2D6 inhibition assay (bufuralol, pooled human liver microsomes)
[5] = Microsomal stability assay, rat liver microsomes;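 also: rat liver microsomes (0.25 mg/mL) with about 1 µM compound plus 1 mM NADPH, pH 7.4, 37 °C for 30 min, parent left measured by LC-MS/MS against 0 min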
[6] = Microsomal stability assay, human liver microsomes;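 also: pooled human liver microsomes at 0.25 mg/mL with 1 µM compound and NADPH at 37 °C, pH 7.4, for 30 min, unchanged parent quantified by LC-MS/MS against the 0 min sample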
[7] = Table 2, read-out: BACE1 FRET assay
[8] = HEK293, Table 2, HEK cells, read-out: HEK cell assay
[9] = 2D6 IC50, CYP enzyme inhibition
[10] = BACE enzyme assay, read-out: BACE1 FRET assay
[11] = HEK293, HEK cells, read-out: HEK cell assay
[12] = 2D6 IC50 (uM), CYP enzyme inhibition
[13] = read-out: BACE1 FRET assay (IC50)
[14] = HEK293, HEK cells, read-out: HEK cell assay (IC50)
[15] = BACE enzyme assay, IC50's in uM, read-out: BACE1 FRET assay
[16] = HEK293, cell-based assay, HEK cells, IC50's in uM, read-out: HEK cell assay
[17] = BACE enzyme assay IC50, read-out: BACE1 FRET assay
[18] = HEK293, HEK cell-based assay IC50, read-out: HEK cell assay
[19] = 2D6 IC50 (uM), CYP2D6 inhibition

Beta Secretase enzyme (BACE), sequence (P56817 46-501): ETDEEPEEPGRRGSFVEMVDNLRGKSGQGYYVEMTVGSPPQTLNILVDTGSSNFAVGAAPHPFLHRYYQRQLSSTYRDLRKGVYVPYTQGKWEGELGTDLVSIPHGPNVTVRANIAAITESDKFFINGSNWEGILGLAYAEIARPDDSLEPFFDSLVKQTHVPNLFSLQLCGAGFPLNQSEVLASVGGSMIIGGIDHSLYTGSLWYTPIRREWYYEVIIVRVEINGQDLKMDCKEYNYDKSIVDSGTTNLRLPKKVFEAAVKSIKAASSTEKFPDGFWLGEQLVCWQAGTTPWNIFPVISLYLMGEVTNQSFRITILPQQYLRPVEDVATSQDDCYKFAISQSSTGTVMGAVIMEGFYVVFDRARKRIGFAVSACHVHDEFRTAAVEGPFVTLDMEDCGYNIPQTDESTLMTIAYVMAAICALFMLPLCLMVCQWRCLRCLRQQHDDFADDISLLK
CYP2D6, sequence (P10635 whole entry): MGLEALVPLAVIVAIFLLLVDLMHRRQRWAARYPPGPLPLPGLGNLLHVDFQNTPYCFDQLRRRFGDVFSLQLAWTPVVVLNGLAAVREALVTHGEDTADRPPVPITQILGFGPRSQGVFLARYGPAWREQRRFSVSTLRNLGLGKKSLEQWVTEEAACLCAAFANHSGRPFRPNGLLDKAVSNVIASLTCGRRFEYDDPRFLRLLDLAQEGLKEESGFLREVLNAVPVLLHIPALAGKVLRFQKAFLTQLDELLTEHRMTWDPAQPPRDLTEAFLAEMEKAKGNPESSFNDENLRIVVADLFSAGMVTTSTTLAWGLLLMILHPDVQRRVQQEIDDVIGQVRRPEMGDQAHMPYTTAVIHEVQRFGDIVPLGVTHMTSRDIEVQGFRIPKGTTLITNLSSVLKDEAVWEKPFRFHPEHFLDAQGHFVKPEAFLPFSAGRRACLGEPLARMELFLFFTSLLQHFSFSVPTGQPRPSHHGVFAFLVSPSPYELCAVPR
CYP3A4 (CYP3A), sequence (P08684 2-503): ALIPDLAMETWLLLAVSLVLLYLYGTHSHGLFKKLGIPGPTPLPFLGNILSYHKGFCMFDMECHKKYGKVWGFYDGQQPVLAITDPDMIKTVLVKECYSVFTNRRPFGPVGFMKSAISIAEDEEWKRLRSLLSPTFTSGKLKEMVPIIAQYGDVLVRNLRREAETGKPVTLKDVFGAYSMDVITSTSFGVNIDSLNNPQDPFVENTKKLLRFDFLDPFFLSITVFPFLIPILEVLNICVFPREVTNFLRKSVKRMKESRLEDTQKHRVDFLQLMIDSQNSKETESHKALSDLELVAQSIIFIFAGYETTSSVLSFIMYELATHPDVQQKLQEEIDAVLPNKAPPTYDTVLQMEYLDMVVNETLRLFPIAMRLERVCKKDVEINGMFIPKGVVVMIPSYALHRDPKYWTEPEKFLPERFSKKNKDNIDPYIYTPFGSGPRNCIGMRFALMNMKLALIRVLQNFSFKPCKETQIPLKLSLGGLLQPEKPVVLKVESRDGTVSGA

Compound | IC50 [2] [nM] | IC50 [4, 9] [µM] | RLM ([5]; rat liver microsomal data) [µL/min/mg] | HLM ([6]; human liver microsomal data) [µL/min/mg] | RLM ([5]; rat liver microsomes) [µL/min/mg] | HLM ([6]; human liver microsomes) [µL/min/mg] | further results
COCC(=O)N[C@@H](C[C@@H]1CCOC1)[C@H](O)CN[C@H]1CC2(CCC2)Oc2ncc(CC(C)(C)C)cc21 [compound 462] | 8500 | 16.9 | 68 | 107 |  |  | IC50 [1, 7]: 0.432 µM; IC50 [3, 8]: 0.649 µM
CO[C@H](C)C(=O)N[C@@H](Cc1ccncc1)[C@H](O)CN[C@H]1CC2(CCC2)Oc2ncc(CC(C)(C)C)cc21 [compound 534] | 500 |  | 113 | 178 |  |  | IC50 [1, 10]: 0.023 µM; IC50 [3, 11]: 0.014 µM; IC50 [4, 12]: 3.6 µM
CC(=O)N[C@@H](Cc1cc(F)cc(F)c1)[C@H](O)CN[C@H]1CC2(CCC2)Oc2c1cc(CC(C)(C)C)nc2-c1ccncc1 [compound 584] | 100 |  |  |  | 50 | 18 | IC50 [1, 13]: 0.011 µM; IC50 [3, 14]: 0.013 µM; IC50 ([4]; 2D6 IC50, CYP2D6 inhibition): 14.5 µM
CC(C)(C)Cc1cnc2c(c1)[C@@H](NC[C@@H](O)[C@H](Cc1ccc3c(c1)OCO3)NC(=O)[C@@H]1CCO1)CC1(CCC1)O2 [compound 525] | 200 |  | 101 | 32 |  |  | IC50 [1, 10]: 0.021 µM; IC50 [3, 11]: 0.019 µM; IC50 [4, 12]: 3.1 µM
CC(C)(C)Cc1cnc2c(c1)[C@@H](NC[C@@H](O)[C@H](Cc1ccc(F)cc1)NC(=O)[C@H]1CCO1)CC1(CCC1)O2 [Example 440, (2R)—N-((1S,2R)-3-(((4′S)-6′-(2,2-dimethylpropyl)-3′,4′-dihydrospiro[cyclobutane-1,2′-pyrano[2,3-b]pyridin]-4′-yl)amino)-1-((4-fluorophenyl)methyl)-2-hydroxypropyl)-2-oxetanecarboxamide] | 700 |  | 242 | 209 |  |  | IC50 [1, 10]: 0.016 µM; IC50 [3, 11]: 0.035 µM; IC50 [4, 12]: 8.2 µM
COCC(=O)N[C@@H](Cc1cc(F)cc(F)c1)[C@H](O)CN[C@H]1CC2(CCC2)Oc2c1cc(CC(C)C)cc2-n1ccnc1 [compound 458] | 100 | 0.9 | 188.5 | 25.5 |  |  | IC50 [1, 7]: 0.017 µM; IC50 [3, 8]: 0.012 µM
CCCc1cnc2c(c1)[C@@H](NC[C@@H](O)[C@H](Cc1cc(F)cc(-c3nccs3)c1)NC(=O)COC)CC1(CCC1)O2 [compound 865] | 300 | 0.7 | 74 | 125 |  |  | IC50 [1, 15]: 0.086 µM; IC50 [3, 16]: 0.879 µM
CC(=O)N[C@@H](Cc1cccc(-c2ncc[nH]2)c1)[C@H](O)CN[C@H]1CC2(CCC2)Oc2ncc(CC(C)(C)C)cc21 [Example 429, N-((2S,3R)-1-(3-(1H-imidazol-2-yl)phenyl)-4-((S)-2,2-spirocyclobutyl-6-neopentyl-3,4-dihydro-2H-pyrano[2,3-b]pyridin-4-ylamino)-3-hydroxybutan-2-yl)acetamide] | 1300 |  |  |  | 37 | 88 | IC50 [1, 17]: 3.59 µM; IC50 [3, 18]: 0.6 µM; IC50 [4, 19]: 0.5 µM
CNc1nc(CC(C)C)cc2c1OC1(CCC1)C[C@@H]2NC[C@@H](O)[C@H](Cc1ccc2c(c1)OCO2)NC(=O)COC [compound 681] | 800 |  |  |  | 392 | 197 | IC50 [1, 17]: 0.064 µM; IC50 [3, 18]: 0.014 µM; IC50 [4, 19]: 9.2 µM
C[C@H](F)C(=O)N[C@@H](Cc1cccc(F)c1)[C@H](O)CN[C@H]1CC2(CCC2)Oc2ncc(CC(C)(F)F)cc21 [compound 608] | 4500 |  |  |  | 183 | 232 | IC50 [1, 13]: 0.008 µM; IC50 [3, 14]: 0.016 µM; IC50 ([4]; 2D6 IC50, CYP2D6 inhibition): 12.2 µM
CO[C@H](C)C(=O)N[C@@H](Cc1cccc(F)c1)[C@H](O)CN[C@H]1CC2(CCC2)Oc2c(-c3ccncc3)cc(CC(C)C)cc21 [compound 609] | 100 |  |  |  | 137 | 64 | IC50 [1, 13]: 0.008 µM; IC50 [3, 14]: 0.005 µM; IC50 ([4]; 2D6 IC50, CYP2D6 inhibition): 2 µM
COC(OC)C(=O)N[C@@H](Cc1cc(F)cc(-c2nccs2)c1)[C@H](O)CN[C@H]1CC2(CCC2)Oc2ncc(CC(C)(C)C)cc21 [compound 871] | 200 | 0.7 | 73 | 59 |  |  | IC50 [1, 15]: 0.007 µM; IC50 [3, 16]: 0.01 µM
